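Cultured in 96-well plates, cells were exposed to test compound for 48 hours across five concentrations. At the GI50, growth is halved.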 Activity calls are given as the source filed them. Cut-off read from the data, not from the text of the source: active = GI50 up to about 1.1 µM and inactive = higher. Positions of bridges follow the written chain, without caps; N, C: chain ends. Non-standard residues stand in square brackets, D forms with d. Residues, ends and D or L forms follow the SMILES beside them. *: point of attachment. Cbz = O=C(OCc1ccccc1)*; Aib = CC(C)(N)C(=O)O; OBn = c1ccc(CO*)cc1; βAla = NCCC(=O)O
Experiments:
Assay in all cases: DTP human tumour cell line panel, 48 h
[1] = system: NCI-H23
[2] = system: MDA-N
[3] = system: UACC-257
[4] = system: SNB-75
[5] = system: HCT-116
[6] = system: HOP-92
[7] = system: IGROV-1
[8] = system: MCF7
[9] = system: A498
[10] = system: LOX IMVI
[11] = system: TK-10
[12] = system: ACHN
[13] = system: HL-60
[14] = system: SK-MEL-5
[15] = system: OVCAR-5
[16] = system: U-251
[17] = system: Malme-3M
[18] = system: SK-MEL-2
[19] = system: OVCAR-3
[20] = system: SF-539

Compound | GI50 [1] | GI50 [2] | GI50 [3] | GI50 [4] | GI50 [5] | GI50 [6] | GI50 [7] | GI50 [8] | GI50 [9] | GI50 [10] | GI50 [11] | GI50 [12] | GI50 [13] | GI50 [14] | GI50 [15] | GI50 [16] | GI50 [17] | GI50 [18] | GI50 [19] | GI50 [20]
COc1cc2c(cc1OC)C1CN3C(=O)CCC3C(O)C1c1cc(OC)c(OC)cc1-2 (stereo unspecified) | > 100 µM (inactive) | > 100 µM (inactive) | > 100 µM (inactive) | 20.9 µM (inactive) | > 100 µM (inactive) | > 100 µM (inactive) | > 100 µM (inactive) | > 100 µM (inactive) | > 100 µM (inactive) | > 100 µM (inactive) | > 100 µM (inactive) | > 100 µM (inactive) | > 100 µM (inactive) | > 100 µM (inactive) | > 100 µM (inactive) | > 100 µM (inactive) | > 100 µM (inactive) | > 100 µM (inactive) | – | –
CN(C)CCOC(=O)c1ccc(N)cc1 | 74.1 µM (inactive) | 36.6 µM (inactive) | 19.4 µM (inactive) | – | 54.7 µM (inactive) | 12.6 µM (inactive) | 22.4 µM (inactive) | 32.6 µM (inactive) | 38.4 µM (inactive) | 28.7 µM (inactive) | 44.4 µM (inactive) | 54.1 µM (inactive) | 39 µM (inactive) | 25.6 µM (inactive) | 29.6 µM (inactive) | 32.1 µM (inactive) | 49.8 µM (inactive) | – | 45.2 µM (inactive) | –
CC1(C)NC(=O)C(NC(=O)C(CC(=O)OCc2ccccc2)NC(=O)OCc2ccccc2)CCCCNC(=O)CCNC1=O (stereo unspecified) (Cbz-D(OBn)K[Aib][βAla]; lactam 2-C; configuration not given here) | > 100 µM (inactive) | > 100 µM (inactive) | – | > 100 µM (inactive) | > 100 µM (inactive) | > 100 µM (inactive) | > 100 µM (inactive) | > 100 µM (inactive) | > 100 µM (inactive) | > 100 µM (inactive) | > 100 µM (inactive) | > 100 µM (inactive) | > 100 µM (inactive) | > 100 µM (inactive) | > 100 µM (inactive) | > 100 µM (inactive) | > 100 µM (inactive) | – | > 100 µM (inactive) | > 100 µM (inactive)
CC1(C)Cc2ccccc2C(C)(Cl)C(=O)N1 (stereo unspecified) | > 10 µM (inactive) | > 10 µM (inactive) | > 10 µM (inactive) | – | > 10 µM (inactive) | > 10 µM (inactive) | > 10 µM (inactive) | > 10 µM (inactive) | > 10 µM (inactive) | – | > 10 µM (inactive) | > 10 µM (inactive) | > 10 µM (inactive) | – | > 10 µM (inactive) | > 10 µM (inactive) | > 10 µM (inactive) | – | > 10 µM (inactive) | > 10 µM (inactive)
COc1ccc(OC)c(/C=C/c2ccnc3ccccc23)c1 | 0.346 µM (active) | 0.156 µM (active) | 0.513 µM (active) | – | 0.377 µM (active) | 1.07 µM (active) | 0.822 µM (active) | 0.851 µM (active) | 0.452 µM (active) | 0.365 µM (active) | 1.61 µM (inactive) | 0.533 µM (active) | 0.2 µM (active) | 0.272 µM (active) | 2.43 µM (inactive) | 0.374 µM (active) | 2.07 µM (inactive) | – | 0.269 µM (active) | 0.21 µM (active)
CC(C)(C)OC(=O)N(O)[C@@H]1CC[C@H](n2cnc3c(N)ncnc32)C1 | > 100 µM (inactive) | > 100 µM (inactive) | > 100 µM (inactive) | > 100 µM (inactive) | > 100 µM (inactive) | > 100 µM (inactive) | 54.5 µM (inactive) | > 100 µM (inactive) | > 100 µM (inactive) | > 100 µM (inactive) | > 100 µM (inactive) | > 100 µM (inactive) | – | > 100 µM (inactive) | > 100 µM (inactive) | > 100 µM (inactive) | > 100 µM (inactive) | > 100 µM (inactive) | > 100 µM (inactive) | > 100 µM (inactive)
c1ccc(CNCCN2CCNCC2)nc1 | > 100 µM (inactive) | > 100 µM (inactive) | > 100 µM (inactive) | 52 µM (inactive) | > 100 µM (inactive) | > 100 µM (inactive) | > 100 µM (inactive) | > 100 µM (inactive) | > 100 µM (inactive) | > 100 µM (inactive) | > 100 µM (inactive) | > 100 µM (inactive) | – | > 100 µM (inactive) | > 100 µM (inactive) | > 100 µM (inactive) | > 100 µM (inactive) | > 100 µM (inactive) | > 100 µM (inactive) | > 100 µM (inactive)
COc1ccc(C(Nc2ccccn2)c2cc(C(C)(C)C)cc(C(C)(C)C)c2O)cc1 (stereo unspecified) | 17.1 µM (inactive) | 20.7 µM (inactive) | 26.2 µM (inactive) | 13.8 µM (inactive) | 12.6 µM (inactive) | 31.6 µM (inactive) | 24 µM (inactive) | 16.2 µM (inactive) | 54.8 µM (inactive) | 13.9 µM (inactive) | 49.7 µM (inactive) | 30.8 µM (inactive) | – | 16.3 µM (inactive) | 42 µM (inactive) | 19.8 µM (inactive) | 10.4 µM (inactive) | 18.1 µM (inactive) | 11.4 µM (inactive) | 48.1 µM (inactive)
CC(C)CC(=O)OC[n+]1cccc(-c2c(COC(=O)NC(C)C)c(COC(=O)NC(C)C)c3n2CCC3)c1 | 31.1 µM (inactive) | > 100 µM (inactive) | > 100 µM (inactive) | 39.8 µM (inactive) | 44 µM (inactive) | 26.6 µM (inactive) | > 100 µM (inactive) | 45.1 µM (inactive) | 23.3 µM (inactive) | 26.8 µM (inactive) | 63.5 µM (inactive) | 24.9 µM (inactive) | – | 58.5 µM (inactive) | 60.8 µM (inactive) | 41.5 µM (inactive) | 83.6 µM (inactive) | 34 µM (inactive) | > 100 µM (inactive) | 37.5 µM (inactive)
COc1ccc(OC)c(C2CCc3cnc4nc(N)nc(N)c4c3C2)c1 (stereo unspecified) | 64.6 µM (inactive) | 55.5 µM (inactive) | 61.9 µM (inactive) | 19.7 µM (inactive) | 46 µM (inactive) | > 100 µM (inactive) | 56 µM (inactive) | > 100 µM (inactive) | > 100 µM (inactive) | 62.1 µM (inactive) | > 100 µM (inactive) | > 100 µM (inactive) | > 100 µM (inactive) | > 100 µM (inactive) | > 100 µM (inactive) | 48.8 µM (inactive) | > 100 µM (inactive) | > 100 µM (inactive) | > 100 µM (inactive) | –
OC1CSc2nc3ccccc3n2C1 (stereo unspecified) | > 100 µM (inactive) | > 100 µM (inactive) | > 100 µM (inactive) | 17.9 µM (inactive) | > 100 µM (inactive) | > 100 µM (inactive) | > 100 µM (inactive) | > 100 µM (inactive) | > 100 µM (inactive) | > 100 µM (inactive) | > 100 µM (inactive) | > 100 µM (inactive) | > 100 µM (inactive) | > 100 µM (inactive) | > 100 µM (inactive) | > 100 µM (inactive) | > 100 µM (inactive) | – | > 100 µM (inactive) | > 100 µM (inactive)

— ChEMBL document CHEMBL1201862, “PubChem BioAssay data set” (2004)
